Experiments:
Assay type in all cases: functional
[1] = test system: SR; test: Cytotoxicity against human SR cells at 10^-7 M after 48 hrs by SRB assay; details: read-out: GI
[2] = test system: SR; test: Cytotoxicity against human SR cells at 10^-6 M after 48 hrs by SRB assay; details: read-out: GI
[3] = test system: A549; test: Cytotoxicity against human A549 cells after 48 hrs by SRB assay; details: A549, 48 h
[4] = test system: BT-549; test: Cytotoxicity against human BT549 cells at 10^-8 M after 48 hrs by SRB assay; details: BT-549, 48 h, read-out: GI
[5] = test system: MDA-MB-231; test: Cytotoxicity against human MDA-MB-231 cells at 10^-8 M after 48 hrs by SRB assay; details: MDA-MB-231, 48 h, read-out: GI
[6] = test system: NCI/ADR-RES; test: Cytotoxicity against human NCI/ADR-RES cells at 10^-8 M after 48 hrs by SRB assay; details: read-out: GI
[7] = test system: TK-10; test: Cytotoxicity against human TK10 cells at 10^-8 M after 48 hrs by SRB assay; details: TK-10, 48 h, read-out: GI
[8] = test system: RXF 393; test: Cytotoxicity against human RXF393 cells at 10^-8 M after 48 hrs by SRB assay; details: RXF 393, 48 h, read-out: GI
[9] = test system: SN12C; test: Cytotoxicity against human SN12C cells at 10^-8 M after 48 hrs by SRB assay; details: read-out: GI
[10] = Cytotoxicity against human OVCAR5 cells at 10^-8 M after 48 hrs by SRB assay; details: OVCAR-5, 48 h, read-out: GI
[11] = test system: OVCAR-8; test: Cytotoxicity against human OVCAR8 cells at 10^-8 M after 48 hrs by SRB assay; details: OVCAR-8, 48 h, read-out: GI
[12] = test system: SK-MEL-5; test: Cytotoxicity against human SK-MEL-5 cells at 10^-8 M after 48 hrs by SRB assay; details: SK-MEL-5, 48 h, read-out: GI
[13] = test system: M14; test: Cytotoxicity against human M14 cells at 10^-8 M after 48 hrs by SRB assay; details: M14, 48 h, read-out: GI
[14] = test system: U-251; test: Cytotoxicity against human U251 cells at 10^-8 M after 48 hrs by SRB assay; details: U-251, 48 h, read-out: GI
[15] = test system: SF-539; test: Cytotoxicity against human SF539 cells at 10^-8 M after 48 hrs by SRB assay; details: SF-539, 48 h, read-out: GI
[16] = test system: SF-295; test: Cytotoxicity against human SF295 cells at 10^-8 M after 48 hrs by SRB assay; details: SF-295, 48 h, read-out: GI
[17] = test system: KM12; test: Cytotoxicity against human KM12 cells at 10^-8 M after 48 hrs by SRB assay; details: KM12, 48 h, read-out: GI
[18] = test system: HCT-15; test: Cytotoxicity against human HCT15 cells at 10^-8 M after 48 hrs by SRB assay; details: HCT-15, 48 h, read-out: GI
[19] = test system: HCT-116; test: Cytotoxicity against human HCT116 cells at 10^-8 M after 48 hrs by SRB assay; details: HCT-116, 48 h, read-out: GI
[20] = test system: HCC 2998; test: Cytotoxicity against human HCC2998 cells at 10^-8 M after 48 hrs by SRB assay; details: HCC 2998, 48 h, read-out: GI
[21] = test system: COLO 205; test: Cytotoxicity against human COLO205 cells at 10^-8 M after 48 hrs by SRB assay; details: COLO 205, 48 h, read-out: GI
[22] = test system: NCI-H226; test: Cytotoxicity against human NCI-H226 cells at 10^-8 M after 48 hrs by SRB assay; details: NCI-H226, 48 h, read-out: GI
[23] = test system: RPMI-8226; test: Cytotoxicity against human RPMI8226 cells at 10^-8 M after 48 hrs by SRB assay; details: RPMI-8226, 48 h, read-out: GI
[24] = test system: K562; test: Cytotoxicity against human K562 cells at 10^-8 M after 48 hrs by SRB assay; details: K562, 48 h, read-out: GI
[25] = test system: MDA-MB-435; test: Cytotoxicity against human MDA-MB-435 cells at 10^-7 M after 48 hrs by SRB assay; details: MDA-MB-435, 48 h, read-out: GI
[26] = test system: MDA-MB-231; test: Cytotoxicity against human MDA-MB-231 cells at 10^-7 M after 48 hrs by SRB assay; details: MDA-MB-231, 48 h, read-out: GI
[27] = test system: DU-145; test: Cytotoxicity against human DU145 cells at 10^-7 M after 48 hrs by SRB assay; details: DU-145, 48 h, read-out: GI
[28] = Cytotoxicity against human UO31 cells at 10^-7 M after 48 hrs by SRB assay; details: UO-31, 48 h, read-out: GI
[29] = test system: SN12C; test: Cytotoxicity against human SN12C cells at 10^-7 M after 48 hrs by SRB assay; details: read-out: GI
[30] = test system: ACHN; test: Cytotoxicity against human ACHN cells at 10^-7 M after 48 hrs by SRB assay; details: read-out: GI
[31] = test system: A498; test: Cytotoxicity against human A498 cells at 10^-7 M after 48 hrs by SRB assay; details: A498, 48 h, read-out: GI
[32] = test system: OVCAR-8; test: Cytotoxicity against human OVCAR8 cells at 10^-7 M after 48 hrs by SRB assay; details: OVCAR-8, 48 h, read-out: GI
[33] = Cytotoxicity against human OVCAR4 cells at 10^-7 M after 48 hrs by SRB assay; details: OVCAR-4, 48 h, read-out: GI
[34] = test system: OVCAR-3; test: Cytotoxicity against human OVCAR3 cells at 10^-7 M after 48 hrs by SRB assay; details: OVCAR-3, 48 h, read-out: GI
[35] = test system: M14; test: Cytotoxicity against human M14 cells at 10^-7 M after 48 hrs by SRB assay; details: M14, 48 h, read-out: GI
[36] = test system: LOX IMVI; test: Cytotoxicity against human LOXIMVI cells at 10^-7 M after 48 hrs by SRB assay; details: read-out: GI
[37] = test system: U-251; test: Cytotoxicity against human U251 cells at 10^-7 M after 48 hrs by SRB assay; details: U-251, 48 h, read-out: GI
[38] = test system: SNB-19; test: Cytotoxicity against human SNB19 cells at 10^-7 M after 48 hrs by SRB assay; details: SNB-19, 48 h, read-out: GI
[39] = test system: SF-295; test: Cytotoxicity against human SF295 cells at 10^-7 M after 48 hrs by SRB assay; details: SF-295, 48 h, read-out: GI
[40] = test system: SW-620; test: Cytotoxicity against human SW620 cells at 10^-7 M after 48 hrs by SRB assay; details: SW-620, 48 h, read-out: GI
[41] = Cytotoxicity against human EKVX cells at 10^-7 M after 48 hrs by SRB assay; details: read-out: GI
[42] = test system: RPMI-8226; test: Cytotoxicity against human RPMI8226 cells at 10^-7 M after 48 hrs by SRB assay; details: RPMI-8226, 48 h, read-out: GI
[43] = test system: CCRF-CEM; test: Cytotoxicity against human CCRF-CEM cells at 10^-7 M after 48 hrs by SRB assay; details: read-out: GI
[44] = test system: HCC 2998; test: Cytotoxicity against human HCC2998 cells at 10^-6 M after 48 hrs by SRB assay; details: HCC 2998, 48 h, read-out: GI

`CCN(Cc1nc2cc(C(F)(F)F)ccc2nc1-c1ccccc1)c1ccc(OC)c(OC)c1` gave an inhibition of growth at 0.1 µM [1] of less than 40%, an inhibition of growth at 1 µM [2] of less than 40% and a GI50 [3] of 372 nM. It also gave an inhibition of growth at 0.01 µM [4] of less than 40%, an inhibition of growth at 0.01 µM [5] of less than 40% and an inhibition of growth at 0.01 µM [6] of less than 40%. For the same compound, the inhibition of growth at 0.01 µM [7] was less than 40%, the inhibition of growth at 0.01 µM [8] was 22% and the inhibition of growth at 0.01 µM [9] was less than 40%. It also gave an inhibition of growth at 0.01 µM [10] of less than 40%, an inhibition of growth at 0.01 µM [11] of 11% and an inhibition of growth at 0.01 µM [12] of less than 40%. It also gave an inhibition of growth at 0.01 µM [13] of less than 40%, an inhibition of growth at 0.01 µM [14] of less than 40% and an inhibition of growth at 0.01 µM [15] of less than 40%. It also gave an inhibition of growth at 0.01 µM [16] of less than 40%, an inhibition of growth at 0.01 µM [17] of less than 40% and an inhibition of growth at 0.01 µM [18] of less than 40%. The inhibition of growth at 0.01 µM [19] was less than 40%, the inhibition of growth at 0.01 µM [20] was less than 40% and the inhibition of growth at 0.01 µM [21] was less than 40%. It also gave an inhibition of growth at 0.01 µM [22] of less than 40%, an inhibition of growth at 0.01 µM [23] of less than 40% and an inhibition of growth at 0.01 µM [24] of less than 40%. The inhibition of growth at 0.1 µM [25] was less than 40%, the inhibition of growth at 0.1 µM [26] was less than 40% and the inhibition of growth at 0.1 µM [27] was less than 40%. For the same compound, the inhibition of growth at 0.1 µM [28] was less than 40%, the inhibition of growth at 0.1 µM [29] was less than 40% and the inhibition of growth at 0.1 µM [30] was less than 40%. The inhibition of growth at 0.1 µM [31] was less than 40%, the inhibition of growth at 0.1 µM [32] was 25% and the inhibition of growth at 0.1 µM [33] was less than 40%. For the same compound, the inhibition of growth at 0.1 µM [34] was less than 40%, the inhibition of growth at 0.1 µM [35] was less than 40% and the inhibition of growth at 0.1 µM [36] was less than 40%. It also gave an inhibition of growth at 0.1 µM [37] of less than 40%, an inhibition of growth at 0.1 µM [38] of less than 40% and an inhibition of growth at 0.1 µM [39] of less than 40%. For the same compound, the inhibition of growth at 0.1 µM [40] was less than 40%, the inhibition of growth at 0.1 µM [41] was less than 40% and the inhibition of growth at 0.1 µM [42] was less than 40%. For the same compound, the inhibition of growth at 0.1 µM [43] was less than 40% and the inhibition of growth at 1 µM [44] was less than 40%.

Reference: ChEMBL document CHEMBL3120154, “2-[N-Alkyl(R-phenyl)-aminomethyl]-3-phenyl-7-trifluoromethylquinoxalines as anticancer agents inhibitors of folate enzymes” (Eur J Med Chem, 2014)
